Where two headings read alike, the source gives them in different places.
Test: Phase 1/2 clinical study, plasma pharmacokinetic evaluation
Assay type: in vivo, human
Details: human, plasma, oral
Protocol: In the present test of the present compound, PK samples have been collected in up to 24 patients dosed in dose groups of 40, 80, 100, and 120 mg BID Arm A, and in dose groups of 40 and 60 mg BID Arm B (Table 6). Large preliminary PK inter-patient variability was observed.
(1) In the present study, PK samples have been collected in up to 42 patients dosed in dose groups of 40, 80, 100, 120, 140 and 200 mg BID Arm A, and in dose groups of 40, 60, 100, and 200 mg BID Arm B (Table 15).
(2) In the present study, PK samples have been collected in patients dosed in dose groups of 40, 80, 100, 120, 140, 200, and 300 mg BID Arm A, and in dose groups of 40, 60, 100, 200, and 300 mg BID Arm B (Table 16).

[1] = 100 mg, 100 mg BID Arm A, C2D1, N=1
[2] = 100 mg, 100 mg BID Arm B, Cycle 1 Day 1, N=4, mean
[3] = 100 mg, 100 mg BID Arm B, Cycle 2 Day 1, N=4, mean
[4] = 100 mg, Cycle 1 Day 1, 100 mg BID Arm A (without azole), N=2, mean
[5] = 100 mg, Cycle 1 Day 1, 100 mg BID Arm B (with azole), N=4, mean
[6] = 100 mg, Cycle 2 Day 1, 100 mg BID Arm A (without azole), N=1
[7] = 100 mg, Cycle 2 Day 1, 100 mg BID Arm B (with azole), N=4, mean
[8] = 100 mg, Table 15 cut-off, 100 mg BID Arm A, Cycle 1 Day 1, N=2, mean
[9] = 100 mg, Table 15 cut-off, 100 mg BID Arm A, Cycle 2 Day 1, N=1
[10] = 120 mg, 120 mg BID Arm A, C1D1, N=6, mean
[11] = 120 mg, 120 mg BID Arm A, C2D1, N=6, mean
[12] = 120 mg, Cycle 1 Day 1, 120 mg BID Arm A (without azole), N=6, mean
[13] = 120 mg, Cycle 2 Day 1, 120 mg BID Arm A (without azole), N=6, mean
[14] = 120 mg, Table 15 cut-off, 120 mg BID Arm A, Cycle 1 Day 1, N=6, mean
[15] = 120 mg, Table 15 cut-off, 120 mg BID Arm A, Cycle 2 Day 1, N=6, mean
[16] = 140 mg, 140 mg BID Arm A, Cycle 1 Day 1, N=6 (incl. two patients with MDS), mean
[17] = 140 mg, 140 mg BID Arm A, Cycle 2 Day 1, N=5 (incl. two patients with MDS), mean
[18] = 140 mg, Cycle 1 Day 1, 140 mg BID Arm A (without azole), N=6 (two MDS patients included, one pt excluded), mean
[19] = 140 mg, Cycle 2 Day 1, 140 mg BID Arm A (without azole), N=5 (two MDS patients included, one pt excluded), mean
[20] = 140 mg, Cycle 2 Day 1, 140 mg BID Arm B (with azole), N=1
[21] = 200 mg, 200 mg BID Arm A, Cycle 1 Day 1, N=4, mean
[22] = 200 mg, 200 mg BID Arm B, Cycle 1 Day 1, N=6, mean
[23] = 200 mg, 200 mg BID Arm B, Cycle 2 Day 1, N=2, mean
[24] = 200 mg, Cycle 1 Day 1, 200 mg BID Arm A (without azole), N=5, mean
[25] = 200 mg, Cycle 1 Day 1, 200 mg BID Arm B (with azole), N=11, mean
[26] = 200 mg, Cycle 2 Day 1, 200 mg BID Arm A (without azole), N=3, mean
[27] = 200 mg, Cycle 2 Day 1, 200 mg BID Arm B (with azole), N=5 (three patients excluded), mean
[28] = 300 mg, Cycle 1 Day 1, 300 mg BID Arm A (without azole), N=4, mean
[29] = 300 mg, Cycle 1 Day 1, 300 mg BID Arm B (with azole), N=3 (one patient pending re-assay), mean
[30] = 300 mg, Cycle 2 Day 1, 300 mg BID Arm A (without azole), N=3, mean
[31] = 300 mg, Cycle 2 Day 1, 300 mg BID Arm B (with azole), N=1 (one patient pending re-assay)

Compound: C=C1C[C@@H]2CC[C@H]1[C@@H](C(=O)N1CCC3(CC1)CN(c1ncncc1Oc1ccc(F)cc1C(=O)N(C(C)C)C(C)C)C3)N2 [the present compound, 5-fluoro-2-[(4-{7-[(1S,3S,4R)-5-methylidene-2-azabicyclo[2.2.2]octane-3-carbonyl]-2,7-diazaspiro[3.5]nonan-2-yl}pyrimidin-5-yl)oxy]-N,N-di(propan-2-yl)benzamide]
- Tmax (100 mg, 100 mg BID Arm A, C1D1, N=2, mean): 3 h
- half-life (100 mg, 100 mg BID Arm A, C1D1, N=2, mean, read-out: t1/2 (converted)): 5.64 h
- AUC(0-t) [1]: 6060 ng·h/mL
- Cmax [1]: 2840 ng/mL
- Tmax [1]: 1 h
- half-life (100 mg, 100 mg BID Arm A, C2D1, N=1, read-out: t1/2 (converted)): 2.88 h
- AUC(0-t) [2]: 5600 ng·h/mL
- Cmax [2]: 1650 ng/mL
- AUC(0-t) [3]: 8350 ng·h/mL
- Cmax [3]: 1810 ng/mL
- AUC(0-t) [4]: 4940 ng·h/mL
- Cmax [4]: 1380 ng/mL
- AUC(0-t) [5]: 5600 ng·h/mL
- Cmax [5]: 1650 ng/mL
- AUC(0-t) [6]: 6060 ng·h/mL
- Cmax [6]: 2840 ng/mL
- AUC(0-t) [7]: 8350 ng·h/mL
- Cmax [7]: 1810 ng/mL
- AUC(0-t) [8]: 4940 ng·h/mL
- Cmax [8]: 1380 ng/mL
- AUC(0-t) [9]: 6060 ng·h/mL
- Cmax [9]: 2840 ng/mL
- AUC(0-t) [10]: 6250 ng·h/mL
- Cmax [10]: 2280 ng/mL
- Tmax [10]: 1.25 h
- half-life (120 mg, 120 mg BID Arm A, C1D1, N=6, mean, read-out: t1/2 (converted)): 2.87 h
- AUC(0-t) [11]: 7860 ng·h/mL
- Cmax [11]: 1980 ng/mL
- Tmax [11]: 1.2 h
- half-life (120 mg, 120 mg BID Arm A, C2D1, N=6, mean, read-out: t1/2 (converted)): 3.26 h
- AUC(0-t) [12]: 6290 ng·h/mL
- Cmax [12]: 2320 ng/mL
- AUC(0-t) [13]: 7970 ng·h/mL
- Cmax [13]: 1980 ng/mL
- AUC(0-t) [14]: 6290 ng·h/mL
- Cmax [14]: 2320 ng/mL
- AUC(0-t) [15]: 7970 ng·h/mL
- Cmax [15]: 1980 ng/mL
- AUC(0-t) [16]: 3570 ng·h/mL
- Cmax [16]: 1480 ng/mL
- AUC(0-t) [17]: 4200 ng·h/mL
- Cmax [17]: 1670 ng/mL
- AUC(0-t) [18]: 3570 ng·h/mL
- Cmax [18]: 1480 ng/mL
- AUC(0-t) (140 mg, Cycle 1 Day 1, 140 mg BID Arm B (with azole), N=2, mean): 7000 ng·h/mL
- AUC(0-t) [19]: 4200 ng·h/mL
- Cmax [19]: 1670 ng/mL
- AUC(0-t) [20]: 5520 ng·h/mL
- Cmax [20]: 1770 ng/mL
- AUC(0-t) [21]: 9650 ng·h/mL
- Cmax [21]: 3850 ng/mL
- AUC(0-t) [22]: 21200 ng·h/mL
- Cmax [22]: 6260 ng/mL
- AUC(0-t) [23]: 16700 ng·h/mL
- Cmax [23]: 4360 ng/mL
- AUC(0-t) [24]: 12100 ng·h/mL
- Cmax [24]: 3870 ng/mL
- AUC(0-t) [25]: 21200 ng·h/mL
- Cmax [25]: 5700 ng/mL
- AUC(0-t) [26]: 12000 ng·h/mL
- Cmax [26]: 3850 ng/mL
- AUC(0-t) [27]: 16800 ng·h/mL
- Cmax [27]: 4070 ng/mL
- AUC(0-t) [28]: 15900 ng·h/mL
- Cmax [28]: 6070 ng/mL
- AUC(0-t) [29]: 26000 ng·h/mL
- Cmax [29]: 5970 ng/mL
- AUC(0-t) [30]: 12400 ng·h/mL
- Cmax [30]: 3060 ng/mL
- AUC(0-t) [31]: 20500 ng·h/mL
- Cmax [31]: 4210 ng/mL
- half-life (Arm A (without azole), FIGS. 4A to 4D cut-off, read-out: Mean t1/2): 2 to 6 h
- half-life (Arm A, 40-120 mg BID, read-out: Mean plasma t1/2): 2.82 to 5.64 h
- half-life (Arm A, 40-200 mg BID (up to 42 patients), read-out: Mean apparent half-life): 2 to 5 h
- half-life (Arm A, 40-300 mg BID, read-out: Mean apparent half-life): 2 to 4 h
- half-life (Arm B (with azole), FIGS. 4A to 4D cut-off, read-out: Mean t1/2): 3 to 7 h
- half-life (Arm B, 40-60 mg BID, read-out: Mean plasma t1/2): 2.61 to 7.29 h
- half-life (Arm B, 40-200 mg BID (up to 42 patients), read-out: Mean apparent half-life): 3 to 7 h
- half-life (Arm B, 40-300 mg BID, read-out: Mean apparent half-life): 3 to 7 h
- Tmax (post dose, Arms A and B, first cut-off): ≤ 2 h
